Data published in ChEMBL document CHEMBL1201862, “PubChem BioAssay data set” (2004).
Active and inactive are the calls of the source. For most assays here, no stated cut-off is given here; in the data, actives have a measured EC50 and inactives only a lower limit.

Assays:
[1] = target: T1, RNA-binding protein pos-1 (Caenorhabditis elegans, UniProt G5EF15); assay: inhibitors of POS-1/mex-3 RNA binding, dose response, biochemical, fluorescence polarization (AID 1964);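 further: purified POS-1 fused to maltose binding protein made in E. coli; potency of compounds blocking POS-1 binding to fluorescent RNA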
T1 sequence (G5EF15 whole entry): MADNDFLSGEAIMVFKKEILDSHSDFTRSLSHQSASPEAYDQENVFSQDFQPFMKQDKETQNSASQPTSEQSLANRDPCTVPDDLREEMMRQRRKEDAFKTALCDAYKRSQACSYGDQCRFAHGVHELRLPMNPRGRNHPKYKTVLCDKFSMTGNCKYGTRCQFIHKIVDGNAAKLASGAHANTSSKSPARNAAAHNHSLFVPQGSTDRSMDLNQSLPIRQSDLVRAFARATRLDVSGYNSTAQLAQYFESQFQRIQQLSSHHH

[2] = target: T2, Zinc finger protein mex-5 (Caenorhabditis elegans, UniProt Q9XUB2); assay: MEX-5/TCR-2 RNA interaction inhibitors, dose response, biochemical, C. elegans, fluorescence polarization (AID 1960)
T2 sequence (Q9XUB2 whole entry): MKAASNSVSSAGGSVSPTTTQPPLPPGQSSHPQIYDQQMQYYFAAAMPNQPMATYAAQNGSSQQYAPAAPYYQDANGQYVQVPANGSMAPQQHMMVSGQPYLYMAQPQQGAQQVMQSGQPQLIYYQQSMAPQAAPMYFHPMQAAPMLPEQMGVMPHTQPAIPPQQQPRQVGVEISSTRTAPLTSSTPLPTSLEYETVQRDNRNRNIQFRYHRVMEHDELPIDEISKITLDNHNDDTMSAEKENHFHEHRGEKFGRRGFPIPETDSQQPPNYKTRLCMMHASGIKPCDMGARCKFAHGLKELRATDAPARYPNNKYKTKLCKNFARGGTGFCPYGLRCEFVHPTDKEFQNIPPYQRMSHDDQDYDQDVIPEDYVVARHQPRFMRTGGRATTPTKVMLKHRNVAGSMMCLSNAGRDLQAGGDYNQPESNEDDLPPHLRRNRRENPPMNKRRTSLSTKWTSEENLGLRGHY

H4 = assay: Luminescence Cell-Based Dose Response HTS to Identify Activators of 5'UTR Stem-Loop Driven Prion Protein mRNA Translation in H4 Neuroglioblastoma Cells. [Related pubchem assays: 1829 (Project Summary), 1814 (Primary HTS)]; format: functional; conditions: Homo sapiens
[3] = Luminescence Cell-Based Dose Response HTS to Identify Activators of Luciferase Translation or Activity in H4 […] Cells. [Related pubchem assays: 1829 (Project Summary), 1814 (Primary HTS)]; format: functional
[4] = Luminescence Cell-Based Dose Confirmation HTS to Identify Activators of 5'UTR Stem-Loop Driven Alpha-Synuclein mRNA Translation in H4 Neuroglioblastoma Cells. [Related pubchem assays: 1829 (Project Summary), 1814 (Primary HTS)]; format: functional
Large T antigen = Large T antigen (Simian virus 40, UniProt P03070); format: functional, Betapolyomavirus macacae;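 further: Confirmatory-stage PubChem screen for compounds that inhibit SV40 T antigen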
[5] = target: Luciferin 4-monooxygenase (Photinus pyralis, UniProt P08659); assay: firefly luciferase enzyme inhibitors, dose response, biochemical, luminescence (AID 1891)
[6] = target: FAD-linked sulfhydryl oxidase ALR (Homo sapiens, UniProt P55789); assay: inhibitors of human ALR sulfhydryl oxidase, dose response, biochemical, H2O2 detection, luminescence, cherry-pick (AID 493248)
[7] = Luminescence Cell-Based Dose Confirmation HTS to Identify Inhibitors of Platelet Dense Granule Release. [Related pubchem assays: 1663 (Primary HTS), 1678 (Summary of Project)]; format: functional
[8] = HEp-2 cell cytotoxicity, dose response, cytotoxicity control for RSV inhibitor project, HTS (AID 2410); format: functional; conditions: human respiratory syncytial virus
[9] = target: T3, Replicative DNA helicase DnaB (Mycobacterium tuberculosis, UniProt P9WMR3); assay: DnaB intein splicing inhibitors, dose response, biochemical, cell-free fluorescence (AID 449749); format: functional
T3 sequence (P9WMR3 whole entry): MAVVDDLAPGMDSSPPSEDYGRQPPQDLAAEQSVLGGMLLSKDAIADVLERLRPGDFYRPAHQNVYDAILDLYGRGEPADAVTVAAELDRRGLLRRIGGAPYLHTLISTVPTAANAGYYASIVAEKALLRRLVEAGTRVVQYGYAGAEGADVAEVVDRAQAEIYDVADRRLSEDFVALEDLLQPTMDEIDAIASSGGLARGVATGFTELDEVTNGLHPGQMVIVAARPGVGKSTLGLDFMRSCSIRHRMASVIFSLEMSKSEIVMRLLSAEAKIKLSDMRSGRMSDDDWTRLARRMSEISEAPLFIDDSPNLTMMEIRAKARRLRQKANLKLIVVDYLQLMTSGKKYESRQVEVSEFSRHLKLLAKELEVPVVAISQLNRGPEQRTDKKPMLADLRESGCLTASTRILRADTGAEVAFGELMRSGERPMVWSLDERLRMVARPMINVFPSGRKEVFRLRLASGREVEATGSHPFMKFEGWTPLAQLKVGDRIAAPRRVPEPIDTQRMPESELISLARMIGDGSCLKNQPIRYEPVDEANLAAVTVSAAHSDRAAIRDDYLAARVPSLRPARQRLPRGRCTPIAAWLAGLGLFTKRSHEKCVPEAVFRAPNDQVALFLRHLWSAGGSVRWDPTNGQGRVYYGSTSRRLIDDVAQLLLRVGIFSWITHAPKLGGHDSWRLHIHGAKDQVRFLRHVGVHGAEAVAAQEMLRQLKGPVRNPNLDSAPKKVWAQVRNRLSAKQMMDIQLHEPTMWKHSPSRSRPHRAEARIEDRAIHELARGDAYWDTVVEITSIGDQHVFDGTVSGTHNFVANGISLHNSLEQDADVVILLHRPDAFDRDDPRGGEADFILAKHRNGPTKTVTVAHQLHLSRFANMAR

Protein RecA = target: T4, Protein RecA (Mycobacterium tuberculosis, UniProt P9WHJ3); assay: Fluorescence Cell-Free Homogeneous Dose Retest to Identify Inhibitors of RecA-Intein Splicing Activity. [Related pubchem assays (depositor defined):AID2097, AID2223, AID489010, AID492950]; format: functional
T4 sequence (P9WHJ3 whole entry): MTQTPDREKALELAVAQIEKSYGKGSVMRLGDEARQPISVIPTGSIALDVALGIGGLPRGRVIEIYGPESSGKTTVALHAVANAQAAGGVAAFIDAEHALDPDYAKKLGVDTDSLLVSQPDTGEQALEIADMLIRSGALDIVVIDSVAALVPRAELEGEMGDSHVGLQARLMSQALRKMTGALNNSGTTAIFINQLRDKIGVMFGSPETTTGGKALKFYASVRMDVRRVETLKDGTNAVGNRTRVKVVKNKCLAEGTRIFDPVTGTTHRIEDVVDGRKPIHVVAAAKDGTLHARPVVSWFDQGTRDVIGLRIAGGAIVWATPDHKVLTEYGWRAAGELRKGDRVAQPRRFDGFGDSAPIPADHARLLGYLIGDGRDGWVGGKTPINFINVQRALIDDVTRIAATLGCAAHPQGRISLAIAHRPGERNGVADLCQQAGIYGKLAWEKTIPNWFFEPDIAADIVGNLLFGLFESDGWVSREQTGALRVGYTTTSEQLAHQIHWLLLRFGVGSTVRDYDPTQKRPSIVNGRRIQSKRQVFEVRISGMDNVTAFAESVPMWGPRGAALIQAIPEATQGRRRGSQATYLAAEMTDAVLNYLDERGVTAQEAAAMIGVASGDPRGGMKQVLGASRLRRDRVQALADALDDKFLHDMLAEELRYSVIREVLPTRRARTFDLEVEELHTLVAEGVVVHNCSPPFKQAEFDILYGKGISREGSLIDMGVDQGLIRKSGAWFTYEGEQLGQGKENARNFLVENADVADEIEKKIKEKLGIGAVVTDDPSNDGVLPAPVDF

Streptokinase A = target: T5, Streptokinase A (Streptococcus pyogenes serotype M1, UniProt P10520); assay: S. pyogenes streptokinase expression inhibitors, potency, dose response, plasminogen activation absorbance, OD405 (AID 1914); format: functional, Streptococcus pyogenes M1 GAS;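 further: secreted streptokinase activity via plasminogen activation per viability signal from cell pellet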
T5 sequence (P10520 whole entry): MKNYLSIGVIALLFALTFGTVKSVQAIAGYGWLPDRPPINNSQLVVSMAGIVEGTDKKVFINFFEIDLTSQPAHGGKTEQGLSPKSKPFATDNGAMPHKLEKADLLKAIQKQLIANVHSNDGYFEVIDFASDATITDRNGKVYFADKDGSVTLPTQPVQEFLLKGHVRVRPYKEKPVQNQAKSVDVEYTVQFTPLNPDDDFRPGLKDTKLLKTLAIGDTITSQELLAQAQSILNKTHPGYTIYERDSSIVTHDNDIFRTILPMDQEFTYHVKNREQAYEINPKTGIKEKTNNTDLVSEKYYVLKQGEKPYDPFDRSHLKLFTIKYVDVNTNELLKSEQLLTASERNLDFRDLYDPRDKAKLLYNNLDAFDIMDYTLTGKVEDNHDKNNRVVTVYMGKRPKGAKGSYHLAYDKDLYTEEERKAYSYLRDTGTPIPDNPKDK

[10] = test system: Streptococcus sp. 'group A'; assay: growth inhibition of control SK(-) GAS strain, dose response, counter-screen for streptokinase expression inhibitor project, luminescence, kanamycin, BacTiterGlo, confirmation (AID 1900); format: functional, organism-based
Streptococcus = assay: Group A Streptococcus viability loss, dose response, counter-screen for streptokinase expression inhibitor project, luminescence, BacTiterGlo (AID 1915); format: functional, organism-based;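 further: potency for reduction of bacterial viability or growth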
[11] = inhibitors of intracellular T. cruzi replication, confirmation, NIH3T3 host cells, beta-gal luminescence (AID 2044); format: functional, cell-based;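 further: intracellular parasites grown in NIH/3T3 mouse fibroblasts as host cells; luminescent beta-galactosidase reporter signal from transgenic T. cruzi replicating inside host cells; inhibitors lower the luminescence signal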
[12] = cytotoxicity toward NIH3T3 fibroblasts, dose response, counter-screen, cell-based, ATP luminescence, mouse fibroblasts (AID 2010); format: functional;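 further: cells exposed to compound for about 90 hours before reading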
Fatty acid synthase [13] = target: T6, Fatty acid synthase (Homo sapiens, UniProt P49327); assay: FAS thioesterase domain inhibitors, dose response, biochemical, kinetic fluorescence intensity (AID 624326); format: functional;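 further: rate of fluorescence rise from hydrolysis of a fluorogenic O-methyl fluorescein ester substrate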
Fatty acid synthase [14] = target: T6, Fatty acid synthase; assay: FAS thioesterase domain inhibitors, dose response, biochemical, endpoint fluorescence intensity, uHTS hits (AID 624327); format: functional;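 further: fluorescence from hydrolysis of an O-methyl fluorescein acyl ester substrate by the enzyme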
H9c2 = assay: cells; format: functional, cell-based; conditions: Rattus norvegicus, H9c2, Myocardium;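 further: confirmatory concentration-response retest of ultra-high-throughput screening hits for modulation of myocardial damage; cell death induced by hydrogen peroxide oxidative stress; compound pretreatment for 60 min then peroxide exposure for 2 h; potency is for protecting the cells against peroxide damage rather than for killing them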

Luciferin 4-monooxygenase, sequence (P08659 whole entry): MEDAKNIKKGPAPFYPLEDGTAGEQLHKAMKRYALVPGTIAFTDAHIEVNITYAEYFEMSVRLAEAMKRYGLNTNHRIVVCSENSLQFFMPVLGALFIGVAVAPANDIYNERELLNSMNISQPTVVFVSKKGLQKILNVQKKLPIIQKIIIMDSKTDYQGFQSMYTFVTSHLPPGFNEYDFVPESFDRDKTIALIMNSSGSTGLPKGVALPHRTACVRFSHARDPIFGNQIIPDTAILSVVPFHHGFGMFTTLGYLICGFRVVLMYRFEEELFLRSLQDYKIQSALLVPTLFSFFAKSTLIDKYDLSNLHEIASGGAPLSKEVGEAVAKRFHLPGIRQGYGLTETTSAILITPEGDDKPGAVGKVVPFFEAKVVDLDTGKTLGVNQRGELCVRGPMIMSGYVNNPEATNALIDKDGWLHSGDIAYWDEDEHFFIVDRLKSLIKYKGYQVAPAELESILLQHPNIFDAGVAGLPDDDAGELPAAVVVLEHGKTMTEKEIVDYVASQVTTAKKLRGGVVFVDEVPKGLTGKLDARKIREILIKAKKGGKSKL
Large T antigen, sequence (P03070 whole entry): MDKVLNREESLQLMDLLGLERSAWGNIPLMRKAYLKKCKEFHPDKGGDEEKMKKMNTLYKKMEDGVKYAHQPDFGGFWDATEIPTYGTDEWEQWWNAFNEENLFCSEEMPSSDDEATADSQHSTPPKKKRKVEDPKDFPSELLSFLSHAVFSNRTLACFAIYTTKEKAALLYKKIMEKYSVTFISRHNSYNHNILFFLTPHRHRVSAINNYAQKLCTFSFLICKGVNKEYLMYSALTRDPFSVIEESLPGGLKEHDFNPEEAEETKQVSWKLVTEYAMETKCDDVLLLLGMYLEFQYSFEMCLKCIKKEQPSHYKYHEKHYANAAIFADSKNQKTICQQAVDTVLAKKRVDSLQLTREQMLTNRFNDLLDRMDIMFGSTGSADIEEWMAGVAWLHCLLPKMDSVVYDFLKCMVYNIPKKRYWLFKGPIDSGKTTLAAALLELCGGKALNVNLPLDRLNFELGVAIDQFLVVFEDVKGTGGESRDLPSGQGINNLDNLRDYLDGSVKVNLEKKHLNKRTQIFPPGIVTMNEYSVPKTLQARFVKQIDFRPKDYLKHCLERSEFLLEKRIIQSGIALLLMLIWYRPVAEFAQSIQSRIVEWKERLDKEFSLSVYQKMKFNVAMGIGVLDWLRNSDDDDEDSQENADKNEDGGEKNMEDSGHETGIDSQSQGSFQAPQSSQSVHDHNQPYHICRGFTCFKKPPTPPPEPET
T6 sequence (P49327 whole entry, the tested form may be a part): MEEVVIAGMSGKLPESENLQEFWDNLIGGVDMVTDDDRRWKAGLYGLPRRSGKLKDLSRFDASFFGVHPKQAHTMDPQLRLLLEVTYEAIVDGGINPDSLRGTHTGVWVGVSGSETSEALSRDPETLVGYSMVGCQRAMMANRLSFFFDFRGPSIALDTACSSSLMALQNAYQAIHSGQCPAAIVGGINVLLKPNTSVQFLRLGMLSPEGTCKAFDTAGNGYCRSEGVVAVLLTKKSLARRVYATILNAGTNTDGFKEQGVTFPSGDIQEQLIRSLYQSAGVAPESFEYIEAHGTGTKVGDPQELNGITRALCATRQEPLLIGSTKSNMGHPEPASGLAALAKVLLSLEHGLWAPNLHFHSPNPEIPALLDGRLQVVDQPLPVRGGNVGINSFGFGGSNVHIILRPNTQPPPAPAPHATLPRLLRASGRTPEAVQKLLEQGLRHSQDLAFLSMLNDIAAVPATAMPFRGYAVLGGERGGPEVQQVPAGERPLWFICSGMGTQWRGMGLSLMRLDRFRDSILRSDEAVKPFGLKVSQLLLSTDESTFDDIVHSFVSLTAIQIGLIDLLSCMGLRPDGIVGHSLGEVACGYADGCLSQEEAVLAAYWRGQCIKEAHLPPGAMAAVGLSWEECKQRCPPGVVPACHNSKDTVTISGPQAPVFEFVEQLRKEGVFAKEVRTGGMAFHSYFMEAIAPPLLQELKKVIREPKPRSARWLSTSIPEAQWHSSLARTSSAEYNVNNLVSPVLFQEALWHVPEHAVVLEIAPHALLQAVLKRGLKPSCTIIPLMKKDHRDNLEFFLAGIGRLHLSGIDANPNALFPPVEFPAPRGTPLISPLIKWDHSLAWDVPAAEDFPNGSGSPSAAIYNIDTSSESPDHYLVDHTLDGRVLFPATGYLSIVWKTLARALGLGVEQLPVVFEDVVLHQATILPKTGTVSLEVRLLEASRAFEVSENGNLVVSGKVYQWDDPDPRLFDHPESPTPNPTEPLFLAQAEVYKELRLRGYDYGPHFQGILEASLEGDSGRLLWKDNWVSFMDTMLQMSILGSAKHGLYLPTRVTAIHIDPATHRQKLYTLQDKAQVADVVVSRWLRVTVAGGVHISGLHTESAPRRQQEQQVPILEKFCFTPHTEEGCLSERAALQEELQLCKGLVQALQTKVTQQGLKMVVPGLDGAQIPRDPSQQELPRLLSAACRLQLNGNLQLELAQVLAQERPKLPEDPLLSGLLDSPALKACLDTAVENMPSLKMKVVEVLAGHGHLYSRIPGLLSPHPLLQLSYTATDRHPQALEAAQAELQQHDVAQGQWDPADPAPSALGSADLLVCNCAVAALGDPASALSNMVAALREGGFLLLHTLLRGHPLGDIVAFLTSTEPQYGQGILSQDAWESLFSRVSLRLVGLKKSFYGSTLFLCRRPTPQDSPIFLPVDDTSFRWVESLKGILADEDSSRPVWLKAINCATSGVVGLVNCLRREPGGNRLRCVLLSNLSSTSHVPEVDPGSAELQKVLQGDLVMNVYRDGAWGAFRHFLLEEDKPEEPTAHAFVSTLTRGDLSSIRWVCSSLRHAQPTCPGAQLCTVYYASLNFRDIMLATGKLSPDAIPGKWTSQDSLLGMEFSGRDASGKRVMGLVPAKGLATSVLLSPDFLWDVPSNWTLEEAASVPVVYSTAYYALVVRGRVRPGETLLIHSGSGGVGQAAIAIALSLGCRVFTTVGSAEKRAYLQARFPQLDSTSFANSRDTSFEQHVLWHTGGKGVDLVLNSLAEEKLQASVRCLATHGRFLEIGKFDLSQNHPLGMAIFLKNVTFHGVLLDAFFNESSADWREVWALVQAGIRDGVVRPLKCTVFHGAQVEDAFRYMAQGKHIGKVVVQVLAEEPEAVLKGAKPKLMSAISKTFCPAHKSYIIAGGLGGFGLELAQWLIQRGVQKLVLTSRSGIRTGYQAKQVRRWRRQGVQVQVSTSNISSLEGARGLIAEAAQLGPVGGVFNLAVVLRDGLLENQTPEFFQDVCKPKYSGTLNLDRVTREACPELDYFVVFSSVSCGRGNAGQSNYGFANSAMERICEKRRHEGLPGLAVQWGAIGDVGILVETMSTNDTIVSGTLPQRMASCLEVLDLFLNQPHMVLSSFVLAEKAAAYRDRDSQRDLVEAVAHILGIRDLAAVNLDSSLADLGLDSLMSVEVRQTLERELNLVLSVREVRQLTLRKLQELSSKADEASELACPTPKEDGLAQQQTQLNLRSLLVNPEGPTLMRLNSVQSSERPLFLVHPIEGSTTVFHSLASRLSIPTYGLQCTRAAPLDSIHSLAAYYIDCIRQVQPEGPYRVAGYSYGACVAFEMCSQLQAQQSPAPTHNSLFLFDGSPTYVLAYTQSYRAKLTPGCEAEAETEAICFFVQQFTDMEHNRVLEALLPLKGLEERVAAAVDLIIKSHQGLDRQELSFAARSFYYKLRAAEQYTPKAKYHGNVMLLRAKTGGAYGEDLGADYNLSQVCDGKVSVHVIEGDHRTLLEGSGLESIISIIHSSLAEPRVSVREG
FAD-linked sulfhydryl oxidase ALR, sequence (P55789 whole entry): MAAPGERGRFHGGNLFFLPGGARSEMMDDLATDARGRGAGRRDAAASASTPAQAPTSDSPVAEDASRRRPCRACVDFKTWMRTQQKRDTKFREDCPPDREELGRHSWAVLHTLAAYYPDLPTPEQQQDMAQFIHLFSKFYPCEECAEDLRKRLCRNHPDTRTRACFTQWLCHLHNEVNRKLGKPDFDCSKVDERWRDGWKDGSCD

Compound: COc1cccc(N2C(=O)/C(=C/c3ccc(C)o3)C(=O)NC2=S)c1
- EC50 [1]: > 300 µM (not active)
- EC50 [2]: 44.5 µM (active)

Compound: CN1CCc2c(sc3nc(SCC(=O)NCc4ccco4)n(-c4ccccc4)c(=O)c23)C1
- EC50 (H4): 25.5 µM (active)
- EC50 [3]: 10.2 µM (active)
- EC50 [4]: 17.9 µM (active)

Compound: O=C1NC(=S)N(c2ccccc2F)C(=O)/C1=C/Nc1ccc(N2CCOCC2)cc1
- IC50 (Large T antigen): 4.54 µM (active)

Compound: CN(C)c1ccc(NC(=O)CN2CCN(S(=O)(=O)c3cc(Cl)ccc3Cl)CC2)cc1
- EC50 [5]: > 112 µM (not active)
- AC50 [6]: 2.31 µM (active)
- EC50 [7]: > 112 µM (not active)

Compound: Cc1ccc(-n2c(C)nc3c(cnn3-c3ccc(C)c(C)c3)c2=O)cc1C
- EC50 (H4): 43.9 µM (active)
- CC50 [8]: 48.5 µM (active)
- EC50 [3]: 8.78 µM (active)
- EC50 [4]: 10.2 µM (active)

Compound: CCNc1ccc(N=Nc2c(C)n(C)n(-c3ccccc3)c2=O)cc1
- IC50 (Large T antigen): 7.88 µM (active)

Compound: O=C(COc1ccccc1[N+](=O)[O-])Nc1ccc(NC(=O)c2cc3ccccc3o2)cc1
- EC50 (H4): > 120 µM (not active)
- EC50 [3]: > 120 µM (not active)
- EC50 [4]: > 120 µM (not active)

Compound: N#CC1=C(N)C(C#N)(C#N)C(c2cccnc2)C2CN(C(=O)OCc3ccccc3)CC=C12 (stereo not drawn)
- AC50 [9]: > 380 µM (inactive)
- EC50 (Protein RecA): 2.59 µM (active)
- EC50 [5]: > 112 µM (not active)
- EC50 [7]: 15.6 µM (active)

Compound: CN1C(=O)C(=Cc2c[nH]c3ccc(Br)cc23)C(=O)N(C)C1=O
- EC50 [1]: > 300 µM (not active)
- EC50 [2]: > 300 µM (not active)

Compound: CCOC(=O)C1=C(Nc2ccccc2)S/C(=C\c2cn(CC(=O)N3CCCC3)c3ccccc23)C1=O
- EC50 [1]: 47.5 µM (active)
- EC50 [2]: 26.2 µM (active)

Compound: O=C(N/N=C/c1cc(Cl)cc([N+](=O)[O-])c1O)C(O)(c1ccccc1)c1ccccc1
- EC50 (Streptokinase A): > 150 µM (not active)
- EC50 [1]: > 300 µM (not active)
- EC50 [2]: 40.2 µM (active)
- EC50 [10]: 3.8 µM (active)
- EC50 (Streptococcus): 7.21 µM (active)

Compound: Cc1c2c(nc3ccccc13)CCC(C(C)(C)C)C2 (stereo not drawn)
- EC50 (H4): 12.7 µM (active)
- CC50 [8]: 44.4 µM (active)
- EC50 [3]: 4.26 µM (active)
- EC50 [4]: 26.6 µM (active)
- EC50 [11]: 3.67 µM (active)
- EC50 [12]: > 60 µM (not active)

Compound: O=C(Nc1cccc(Cl)c1)c1ccc2ncsc2c1
- EC50 (H4): 34.6 µM (active)
- EC50 [3]: 91.3 µM (active)
- EC50 [4]: 4.28 µM (active)

Compound: COc1ccccc1N1CC(C(=O)Nc2nnc(SCC(=O)NC(C)C)s2)CC1=O (stereo not drawn)
- EC50 [1]: > 300 µM (not active)
- EC50 [2]: > 300 µM (not active)

Compound: O=C(N=Nc1c(O)n(C2OC(=O)c3ccccc32)c2ccccc12)c1ccco1 (stereo not drawn)
- EC50 (H4): 15 µM (active)
- EC50 [3]: 11.4 µM (active)
- EC50 [4]: 11.5 µM (active)

Compound: c1ccc(-c2ccc(-c3n[nH]cc3CN3CCC(N4CCSCC4)CC3)cc2)cc1
- EC50 (H4): 12.4 µM (active)
- EC50 [3]: 15.8 µM (active)
- EC50 [4]: 14.4 µM (active)

Compound: COc1cc(C2NC(S)=NC(C)=C2C(=O)Nc2ccc(C)cc2)ccc1O (stereo not drawn)
- EC50 (H4): 21.8 µM (active)
- EC50 [3]: 22.4 µM (active)
- EC50 [4]: 15.1 µM (active)

Compound: CCOc1cccc2cc(C(=O)NCCC3=CCCCC3)c(=O)oc12
- EC50 (H4): 25 µM (active)
- IC50 (Fatty acid synthase [13]): 4.15 µM (active)
- EC50 [3]: > 120 µM (not active)
- EC50 [4]: 7.15 µM (active)
- IC50 (Fatty acid synthase [14]): 3.95 µM (active)

Compound: CCc1nc(N2CCN(C(=O)c3ccco3)CC2)c2oc3ccccc3c2n1
- IC50 (H9c2): > 79 µM (inactive)
- EC50 [5]: > 112 µM (not active)
- EC50 [7]: > 112 µM (not active)
